Assay results: patent US9656962B2, “Ring-contracted morphinans and the use thereof” (Purdue Pharma L.P., priority 2013, dated 2017)

Biological target: μ-opioid receptor (Homo sapiens (Human), UniProt P35372)
Experiment: μ-opioid receptor [35S]GTPγS functional assay, HEK-293 cells (Table 6)
Type: biochemical
Settings: for Emax: relative to DAMGO; for EC50: μ GTP
Description: μ-Opioid Receptor Functional Assay Procedures: [^35S]GTPγS functional assays were conducted using freshly thawed μ-receptor membranes prepared in-house from a cell line expressing recombinant μ opioid receptor in a HEK-293, CHO or U-2 OS cell background, or purchased from a commercial source (Perkin Elmer, Shelton, Conn.; or DiscovRx, Fremont, Calif.). Assay reactions were prepared by sequentially adding the following reagents to binding buffer (100 mM NaCl, 10 mM MgCl2, 20 mM HEPES, pH 7.4) on ice (final concentrations indicated): membrane protein (0.026 mg/mL), saponin ([…]), GDP ([…]) and [^35S]GTPγS (0.20 nM; Perkin Elmer, Shelton, Conn.). The prepared membrane solution (190 μl/well) was transferred to 96-shallow well polypropylene plates containing 10 μl of 20× concentrated stock solutions of the agonist [D-Ala^2, N-methyl-Phe^4 Gly-ol^5]-enkephalin (DAMGO) prepared in dimethyl sulfoxide (DMSO). Plates were incubated for 30 min at about 25° C. with shaking Reactions were terminated by rapid filtration onto 96-well Unifilter GF/B filter plates (Perkin Elmer, Shelton, Conn.) using a 96-well tissue harvester (Perkin Elmer, Shelton, Conn.) followed by three filtration washes with 200 μl of ice-cold wash buffer (10 mM NaH2PO4, 10 mM Na2HPO4, pH 7.4). Filter plates were subsequently dried at 50° C. for 2-3 hours. BetaScint scintillation cocktail (Perkin Elmer, Shelton, Conn.) was added (50 μl/well) and plates were counted using a Packard Top-Count for 1 min/well. Data were analyzed using the sigmoidal dose-response curve fitting functions in GraphPad PRISM v. 3.0, or an in-house function for non-linear, sigmoidal dose-response curve-fitting. [^35S]GTPγS functional assays can also be conducted using freshly thawed μ-receptor membranes prepared from a cell line expressing recombinant μ opioid receptor in a CHO-K1 cell background.
μ GTP Emax (%) is the maximal effect elicited by a compound relative to the effect elicited by DAMGO, a standard μ agonist. Generally, the μ GTP Emax (%) value measures the efficacy of a compound to treat or prevent pain or other Conditions.
The following TABLE 6 provides results on the activity response of certain Compounds of the Invention at the μ- and κ-opioid receptors determined as described above using HEK-293 cells.

In the case of `O=S(=O)(N[C@@H]1C[C@]23CCN(CC4CC4)[C@H](Cc4ccc(O)cc42)[C@]3(O)C1)c1ccccc1` [Compound 95, N-((2R,3aS,4R,9bR)-12-(cyclopropyl-methyl)-3a,8-dihydroxy-1,2,3,3a,4,5-hexahydro-4,9b-(epiminoethano)-cyclopenta[a]naphthalen-2-yl)benzene-sulfonamide], the Emax is reported as 1% and the EC50 (bound given in μM) is reported as > 20 µM.
`O=C(NCc1cccc(O)c1O)[C@H]1C[C@]23CCN(CC4CC4)[C@H](Cc4ccc(O)cc42)[C@]3(O)C1` [Compound 141, (2S,3aS,4R,9bS)-12-(cyclopropylmethyl)-N-(2,3-dihydroxybenzyl)-3a,8-dihydroxy-1,2,3,3a,4,5-hexabydro-4,9b-(epimino-ethano)cyclopenta[a]naphthalene-2-carboxamide] was tested, and the Emax was 47.4 ± 0.83% and the EC50 was 0.00117 ± 0.0001 µM.
For `O=C(NCc1cc(Cl)cc(Cl)c1)[C@@H]1C[C@]23CCN(CC4CC4)[C@H](Cc4ccc(O)cc42)[C@]3(O)C1` [Compound 150, (2R,3aS,4R,9bS)-12-(cyclopropylmethyl)-N-(3,5-dichlorobenzyl)-3a,8-dihydroxy-1,2,3,3a,4,5-hexahydro-4,9b-(epimino-ethano)cyclopenta[a]naphthalene-2-carboxamide], the Emax was -1% and the EC50 (bound given in μM) was > 20 µM.
For `Cc1ccc(CNC(=O)[C@H]2C[C@]34CCN(CC5CC5)[C@H](Cc5ccc(O)cc53)[C@]4(O)C2)cc1Cl` [Compound 137, (2S,3aS,4R,9bS)-N-(3-chloro-4-methylbenzyl)-12-(cyclopropylmethyl)-3a,8-dihydroxy-1,2,3,3a,4,5-hexahydro-4,9b-(epiminoethano)cyclopenta-[a]naphthalene-2-carboxamide], the Emax was 55.5 ± 0.31% and the EC50 was 0.00045 ± 6.1e-05 µM.
For `NC(=O)c1ccc2c(c1)[C@]13CCN(CC4CC4)[C@H](C2)[C@]1(O)C[C@@H](C(=O)NCCN1CCOCC1)C3` [Compound 119, (2S,3aS,4R,9bS)-12-(cyclopropylmethyl)-3a-hydroxy-N^2-(2-morpholinoethyl)-1,2,3,3a,4,5-hexahydro-4,9b-(epimino-ethano)cyclopenta[a]naphthalene-2,8-dicarboxamide], the Emax was 18.4 ± 1.55% and the EC50 was 0.0134 ± 0.00419 µM.
`CN1CC[C@]23C[C@@H](C(=O)N4CCOCC4)C[C@@]2(O)[C@H]1Cc1ccc(O)cc13` [Compound 111, ((2R,3aS,4R,9bS)-3a,8-dihydroxy-12-methyl-1,2,3,3a,4,5-hexahydro-4,9b-(epiminoethano)cyclopenta[a]naphthalen-2-yl)(morpholino)methanone] was tested, and the Emax was 35.1 ± 1.06% and the EC50 was 3.17 ± 0.493 µM.
In the case of `Cc1ccc(CNC(=O)[C@@H]2C[C@]34CCN(CC5CC5)[C@H](Cc5ccc(C(N)=O)cc53)[C@]4(O)C2)cc1` [Compound 117, (2R,3aS,4R,9bS)-12-(cyclopropylmethyl)-3a-hydroxy-N^2-(4-methylbenzyl)-1,2,3,3a,4,5-hexahydro-4,9b-(epimino-ethano)cyclopenta[a]naphthalene-2,8-dicarboxamide], the Emax is reported as -1.21 ± 0.21% and the EC50 (bound given in μM) is reported as > 20 µM.
Molecule `CN1CC[C@]23C[C@@H](C(=O)NCCc4ccccc4)C[C@@]2(O)[C@H]1Cc1ccc(O)cc13` [Compound 100, (2R,3aS,4R,9bS)-3a,8-dihydroxy-12-methyl-N-phenethyl-1,2,3,3a,4,5-hexahydro-4,9b-(epiminoethano)cyclo-penta[a]naphthalene-2-carboxamide] has an Emax of 50.3 ± 0.33% and an EC50 of 1.1 ± 0.188 µM.
For `O=C(NCc1cccc(O)c1O)[C@@H]1C[C@]23CCN(CC4CC4)[C@H](Cc4ccc(O)cc42)[C@]3(O)C1` [Compound 124, (2R,3aS,4R,9bS)-12-(cyclopropylmethyl)-N-(2,3-dihydroxybenzyl)-3a,8-dihydroxy-1,2,3,3a,4,5-hexahydro-4,9b-(epimino-ethano)cyclopenta[a]naphthalene-2-carboxamide], the Emax was 1.93 ± 2.93% and the EC50 (bound given in μM) was > 20 µM.
With `CN1CC[C@]23C[C@@H](C(=O)NCc4ccc(O)cc4O)C[C@@]2(O)[C@H]1Cc1ccc(O)cc13` [Compound 98, (2R,3aS,4R,9bS)-N-(2,4-dihydroxy-benzyl)-3a,8-dihydroxy-12-methyl-1,2,3,3a,4,5-hexahydro-4,9b-(epiminoethano)cyclopenta[a]naphthalene-2-carboxamide] the Emax was 26.7 ± 0.67% and the EC50 was 1.29 ± 0.223 µM.
